Results published in ChEMBL document CHEMBL1201862, “PubChem BioAssay data set” (2004).
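Dose response: 5 concentrations. Exposure: 48 h. Format: 96-well plates. Endpoint: linear interpolation; highest concentration if not reached. GI50 = concentration required for 50% inhibition of growth.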 Active and inactive are the calls of the source. No stated cut-off is given here; in the data, active = GI50 up to about 1.1 µM and inactive = higher.

Key:
Experiment in all cases: inhibition of tumour cell growth, NCI panel, 48 h
TK-10 = test system: TK-10
M14 = test system: M14
SF-295 = test system: SF-295
OVCAR-8 = test system: OVCAR-8
SNB-75 = test system: SNB-75
EKVX = test system: EKVX
SK-MEL-28 = test system: SK-MEL-28
NCI-H522 = test system: NCI-H522
Malme-3M = test system: Malme-3M
IGROV-1 = test system: IGROV-1
HCC 2998 = test system: HCC 2998
K562 = test system: K562
OVCAR-4 = test system: OVCAR-4
RPMI-8226 = test system: RPMI-8226
SF-539 = test system: SF-539
SNB-19 = test system: SNB-19
SW-620 = test system: SW-620
COLO 205 = test system: COLO 205
NCI-H23 = test system: NCI-H23
SK-MEL-5 = test system: SK-MEL-5

Measured: GI50

COc1ccc(N2NC(c3ccccc3)(c3ccccc3)C(C)C2=O)cc1 (stereo not given)
inactive: TK-10 86.7 µM | M14 57.1 µM | SF-295 36.3 µM | OVCAR-8 79.8 µM | SNB-75 > 100 µM | EKVX 68.7 µM | SK-MEL-28 > 100 µM | NCI-H522 43.9 µM | Malme-3M 61.7 µM | IGROV-1 > 100 µM | HCC 2998 > 100 µM | K562 52.1 µM | OVCAR-4 > 100 µM | RPMI-8226 > 100 µM | SF-539 85.1 µM | SNB-19 > 100 µM | SW-620 58.9 µM | COLO 205 16 µM | NCI-H23 65.6 µM | SK-MEL-5 58.9 µM

O=C(Nc1nnc(S)[nH]1)C(=O)C(c1cnc2ccc([N+](=O)[O-])cc2n1)[N+](=O)[O-] (stereo not given)
inactive: TK-10 > 100 µM | M14 > 100 µM | SF-295 > 100 µM | OVCAR-8 > 100 µM | SNB-75 > 100 µM | EKVX > 100 µM | SK-MEL-28 > 100 µM | NCI-H522 16.2 µM | Malme-3M > 100 µM | IGROV-1 > 100 µM | HCC 2998 > 100 µM | K562 > 100 µM | OVCAR-4 > 100 µM | RPMI-8226 89.7 µM | SF-539 > 100 µM | SNB-19 > 100 µM | SW-620 > 100 µM | COLO 205 > 100 µM | NCI-H23 > 100 µM | SK-MEL-5 > 100 µM

CC1(C)Cc2nnsc2C2=C1C(=O)CCS2
inactive: TK-10 > 100 µM | M14 > 100 µM | SF-295 > 100 µM | OVCAR-8 > 100 µM | SNB-75 24 µM | EKVX > 100 µM | SK-MEL-28 > 100 µM | NCI-H522 > 100 µM | Malme-3M > 100 µM | IGROV-1 > 100 µM | HCC 2998 > 100 µM | K562 > 100 µM | OVCAR-4 > 100 µM | RPMI-8226 > 100 µM | SF-539 > 100 µM | SNB-19 > 100 µM | SW-620 > 100 µM | COLO 205 > 100 µM | NCI-H23 > 100 µM | SK-MEL-5 > 100 µM

O=C1c2[nH]c3ccc(Br)cc3c2CCN1Cc1ccc(Cl)cc1
inactive: TK-10 13.7 µM | M14 13.2 µM | SF-295 12.8 µM | OVCAR-8 18.7 µM | SNB-75 20.9 µM | EKVX > 100 µM | SK-MEL-28 14.7 µM | NCI-H522 17.9 µM | Malme-3M 15.3 µM | IGROV-1 16.7 µM | HCC 2998 14.5 µM | K562 8.79 µM | OVCAR-4 18.6 µM | RPMI-8226 > 10 µM | SF-539 10.7 µM | SNB-19 15.1 µM | SW-620 16.5 µM | COLO 205 17.7 µM | NCI-H23 17.1 µM | SK-MEL-5 10.9 µM
